Test results: patent US7282512B2, “Cycloalkyl ketoamides derivatives useful as cathepsin K inhibitors” (SmithKline Beecham Corporation, priority 2002, dated 2007)
Like-named read-outs stand apart in the source and are kept apart here.

Columns and labels:
Type in all cases: biochemical
human cathepsin K = molecular target: T1, human cathepsin K (Homo sapiens, UniProt P43235); assay: cathepsin K inhibition assay, fluorogenic substrate Cbz-Phe-Arg-AMC, progress curve method; conditions: human recombinant enzyme, 10 μM substrate
T1 construct: The proform of cathepsin K was converted to mature cathepsin K by brief exposure to pH 4; made in house; host or cells: baculovirus; Trichoplusia ni High Five cells (virus raised in Sf-9)
T1 sequence (P43235 115-329): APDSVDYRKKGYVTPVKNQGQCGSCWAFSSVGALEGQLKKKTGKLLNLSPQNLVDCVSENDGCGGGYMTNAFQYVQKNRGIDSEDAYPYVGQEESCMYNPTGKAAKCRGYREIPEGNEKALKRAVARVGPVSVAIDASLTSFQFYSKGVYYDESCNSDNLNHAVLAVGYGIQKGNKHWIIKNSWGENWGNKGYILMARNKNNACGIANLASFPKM
Experimental: All assays for cathepsin K were carried out with human and rat recombinant enzyme. Assays for cathepsins S & V were also carried out with human recombinant enzyme. Assays for human cathepsins B, H, and L were carried out with enzyme, purchased from Athens Research and Technology, Inc., prepared from human liver tissue. […] A stock substrate solution of Cbz-Phe-Arg-AMC was prepared at a concentration of 50 mM in dimethyl sulfoxide. This substrate was diluted into the assay for a final substrate concentration of 10 μM in the rat cathepsin K, human cathepsin K, and human cathepsin B assays; a final substrate concentration of 5 μM in the human cathepsin L assay; and a final substrate concentration of 2 μM in the human cathepsin V assay.
(§1) All assays contained 10% dimethyl sulfoxide. […] All assays were conducted at 30° C. Product fluorescence (excitation at 360 nm; emission at 440 nm, (except cathepsin H which used excitation at 340 nm; emission at 420 nm)) was monitored with a PerSeptive Biosystems Cytofluor II fluorescence plate reader. Product progress curves were generated over 2.3 h monitoring the formation of 7-amino-4-methylcoumarin product (or β-naphthalamide for cathepsin H).
Two liters of Spodoptera frugiperda (Sf-9) cells (ATCC) were grown in Grace's Supplemented medium (Life Technologies) supplemented with 2 g/L glucose, 10% fetal bovine serum (HyClone) and 0.1% pluronic F-68 (Life Technologies). […] The cells continued to grow for 72 h post-infection, before the virus was harvested by centrifugation at 1400×g for 30 min.
One and one-half liters of Trichoplusia ni (T. ni) High Five (™) cells [JRH Biosciences, Woodland, Calif. […] Media were separated from cells at a rate of 1 L/min using the Centritech 100 (™) continuous-flow centrifuge (DuPont) operating at 200×g.
Protein Purification: Media (human and rat) were filtered through a Whatman 3 filter, and then loaded onto a 25 mL Poros HS II (26 mm×47 mm) cation exchange column equilibrated in 25 mM sodium acetate at pH 5.5 (equilibration buffer). The column was washed until the absorbance reached the baseline value, and then the protein was eluted with a linear gradient from 0-2 M sodium chloride in the equilibration buffer. Column fractions were analyzed by SDS-PAGE, N-terminal sequencing, and mass spectrometry. Fractions containing the proform of cathepsin K were pooled and frozen at −80° C. The proform was concentrated in an Amicon Centriprep 10 and fractionated with a Superdex 75 column (26 mm×600 mm, Pharmacia) equilibrated in 400 mM sodium chloride, 25 mM sodium acetate at pH 5.5.
Cathepsin K Activation: The proform of cathepsin K was converted to mature cathepsin K by brief exposure to pH 4 in the presence of 5 mM L-cysteine. Typically, 5 mM L-cysteine was added to 10 mL of approximately 1 mg/mL procathepsin K. One mL of this solution was diluted ten-fold into 450 mM sodium acetate at pH 4.0 containing 5 mM L-cysteine. This solution was reacted at 23° C. for 2 min before neutralization with 2 mL 1.8 M sodium acetate at pH 6.0. The neutralized sample was added to the remaining 9 mL of procathepsin K. The mixture was incubated at 4° C. for 2-3 days. The activated cathepsin K was chromatographed on a Poros HS II column as described above.
Potential inhibitors were evaluated using the progress curve method. Assays were carried out in the presence of variable concentrations of test compound. Reactions were initiated by addition of buffered solutions of inhibitor and substrate to enzyme. Data analysis was conducted according to one of two procedures depending on the appearance of the progress curves in the presence of inhibitors. […] Ki values were calculated from IC50 values using equation 2 assuming a competitive model.

human cathepsin B = human cathepsin B (Homo sapiens, UniProt P07858); assay: cathepsin B inhibition assay, fluorogenic substrate Cbz-Phe-Arg-AMC; conditions: Table 2; enzyme from human liver tissue, 10 μM substrate; read-out: hCat B Ki
Experimental: (§2) All assays for cathepsin K were carried out with human and rat recombinant enzyme. Assays for cathepsins S & V were also carried out with human recombinant enzyme. Assays for human cathepsins B, H, and L were carried out with enzyme, purchased from Athens Research and Technology, Inc., prepared from human liver tissue. Standard assay conditions for the determination of kinetic constants used a fluorogenic peptide substrate, typically (5S,8S)-13-amino-5-benzyl-13-imino-3-methylene-N-(4-methyl-2-oxo-2H-chromen-7-yl)-6-oxo-1-phenyl-2-oxa-4,7,12-triazatridecane-8-carboxamide (Cbz-Phe-Arg-AMC), and were determined in 100 mM sodium acetate at pH 5.5 containing 10 mM dithiothreitol and 120 mM sodium chloride. A stock substrate solution of Cbz-Phe-Arg-AMC was prepared at a concentration of 50 mM in dimethyl sulfoxide. This substrate was diluted into the assay for a final substrate concentration of 10 μM in the rat cathepsin K, human cathepsin K, and human cathepsin B assays; a final substrate concentration of 5 μM in the human cathepsin L assay; and a final substrate concentration of 2 μM in the human cathepsin V assay.
as §1
(§3) Potential inhibitors were evaluated using the progress curve method. […] For those compounds whose progress curves were linear, the enzymatic activity (RATE) was plotted against the concentration of test compound, including inhibitor concentration of zero ([I]=0), and the IC50 determined from a fit of equation 1 to the data, RATE=Vmax/(1+([I]/IC50)) (1) where Vmax is the best fit estimate of the maximal enzymatic activity. Ki values were calculated from IC50 values using equation 2 assuming a competitive model.

human cathepsin L = human cathepsin L (Homo sapiens, UniProt P07711); assay: cathepsin L inhibition assay, fluorogenic substrate Cbz-Phe-Arg-AMC; conditions: Table 2; enzyme from human liver tissue, 5 μM substrate; read-out: hCat L Ki
Experimental: as §2, §1, §3

human cathepsin V = human cathepsin V (Homo sapiens, UniProt O60911); assay: cathepsin V inhibition assay, fluorogenic substrate Cbz-Phe-Arg-AMC; conditions: Table 2; human recombinant enzyme, 2 μM substrate; read-out: hCat V Ki
Experimental: as §2, §1, §3

[1] = Table 1, pH 5.5, 30° C., read-out: hcatK Ki

human cathepsin L, sequence (P07711 114-288 limits assumed): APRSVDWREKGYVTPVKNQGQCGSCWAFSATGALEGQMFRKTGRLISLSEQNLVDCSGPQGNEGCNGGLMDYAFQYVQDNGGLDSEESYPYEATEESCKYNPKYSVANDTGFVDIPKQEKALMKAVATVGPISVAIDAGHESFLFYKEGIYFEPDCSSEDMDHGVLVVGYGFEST
human cathepsin L, sequence (P07711 292-333 limits assumed): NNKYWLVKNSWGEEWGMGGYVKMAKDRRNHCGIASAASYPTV
human cathepsin V, sequence (O60911 114-334): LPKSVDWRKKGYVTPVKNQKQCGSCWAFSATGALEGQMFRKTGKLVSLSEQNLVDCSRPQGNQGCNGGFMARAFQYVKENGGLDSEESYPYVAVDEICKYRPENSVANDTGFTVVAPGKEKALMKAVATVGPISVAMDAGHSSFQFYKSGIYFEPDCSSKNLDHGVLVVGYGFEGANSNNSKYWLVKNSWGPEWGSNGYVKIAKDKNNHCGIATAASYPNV

Ki (human cathepsin K; [1]) [nM]	Ki (human cathepsin K; Table 2, read-out: hCat K Ki) [nM]	Ki (human cathepsin B) [nM]	Ki (human cathepsin L) [nM]	Ki (human cathepsin V) [nM]	Compound
10 to 100	10 to 100	> 1000	> 1000	> 1000	CCCC[C@H](NC(=O)OC1(Cc2ccccc2)CCCC1)C(=O)C(=O)N[C@@H](C)C(=O)OCc1ccccc1 [Example 3, Benzyl (2S)-2-{[(3S)-3-({[(1-benzylcyclopentyl)oxy]carbonyl}amino)-2-oxoheptanoyl]amino}propanoate]
< 1	< 1	100 to 1000	10 to 100	1 to 10	CCCC[C@H](NC(=O)OCC1(Cc2ccc(F)cc2)CCC1)C(=O)C(=O)Nc1n[nH]c2cc(Cl)ccc12 [Example 15, [1-(4-fluorobenzyl)cyclobutyl]methyl(1S)-1-[[(6-chloro-1H-indazol-3-yl)amino](oxo)acetyl]pentylcarbamate]
1 to 10	1 to 10	> 1000	10 to 100	10 to 100	CCCC[C@H](NC(=O)OC1(c2nc3ccccc3s2)CCCC1)C(=O)C(=O)Nc1ccn[nH]1 [Example 17, 1-(1,3-Benzothiazol-2-yl)cyclopentyl(1S)-1-[oxo(1H-pyrazol-3-ylamino)acetyl]pentylcarbamate]
